Data as given in patent US6737383B1, “Herbicidal oxadiazolidines” (priority 1999, dated 2004).

What was measured:
morningglory = experiment: Test B pre/postemergence morningglory; assay type: in vivo, Ipomoea hederacea
Procedure, shortened: (§1)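 Herbicidal effect was estimated by eye on a ten-point control scale after plants spent twelve to sixteen days in a greenhouse following soil or foliar treatment. Foliar sprays targeted plants at one to four leaves; all doses were formulated in a non-phytotoxic solvent with surfactant.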

wheat = experiment: Test B pre/postemergence wheat; assay type: in vivo, Triticum aestivum
Procedure, shortened: as §1

rice = experiment: Test B flood test rice; assay type: in vivo, Oryza sativa
Procedure, shortened: (§2)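 Flood test on plants grown to the 2-leaf stage; treated plants kept in greenhouse twelve to sixteen days, then visually rated against controls on a 0 (no effect) to 10 (complete control) scale.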

sugar beet = experiment: Test B pre/postemergence sugar beet; assay type: in vivo, Beta vulgaris
Procedure, shortened: as §1

cocklebur = experiment: Test B pre/postemergence cocklebur; assay type: in vivo, Xanthium strumarium
Procedure, shortened: as §1

crabgrass = experiment: Test B pre/postemergence crabgrass; assay type: in vivo, Digitaria sanguinalis
Procedure, shortened: as §1

pigweed = experiment: Test B pre/postemergence pigweed; assay type: in vivo, Amaranthus retroflexus
Procedure, shortened: as §1

surinam grass = experiment: Test B pre/postemergence surinam grass; assay type: in vivo, Brachiaria decumbens
Procedure, shortened: as §1

wild oat = experiment: Test B pre/postemergence wild oat; assay type: in vivo, Avena fatua
Procedure, shortened: as §1

corn = experiment: Test B pre/postemergence corn; assay type: in vivo, Zea mays
Procedure, shortened: as §1

blackgrass = experiment: Test B pre/postemergence blackgrass; assay type: in vivo, Alopecurus myosuroides
Procedure, shortened: as §1

bedstraw = experiment: Test B pre/postemergence bedstraw; assay type: in vivo, Galium aparine
Procedure, shortened: as §1

bamyardgrass = experiment: Test B flood test barnyardgrass; assay type: in vivo, Echinochloa crus-galli
Procedure, shortened: as §2

rape = experiment: Test B pre/postemergence rape; assay type: in vivo, Brassica napus
Procedure, shortened: as §1

purple nutsedge = experiment: Test B pre/postemergence purple nutsedge; assay type: in vivo, Cyperus rotundus
Procedure, shortened: as §1

giant foxtail = experiment: Test B pre/postemergence giant foxtail; assay type: in vivo, Setaria faberii
Procedure, shortened: as §1

[1] = Postemergence, Rate 125 g/ha, scale of 0 to 10 where 0 is no effect and 10 is complete control
[2] = Preemergence, Rate 62 g/ha, scale 0 to 10 (0 no effect, 10 complete control)
[3] = Preemergence, Rate 125 g/ha, 0 is no effect, 10 is complete control
[4] = Preemergence, Rate 250 g/ha, scale 0 to 10, 0 is no effect, 10 is complete control
[5] = Preemergence, Rate 500 g/ha, scale 0 to 10 (0 no effect, 10 complete control)
[6] = Rate 62 g/ha, Postemergence, scale of 0 to 10 where 0 is no effect and 10 is complete control
[7] = Rate 250 g/ha, Postemergence, scale 0 to 10, 0 is no effect, 10 is complete control
[8] = Rate 500 g/ha, Postemergence, scale 0 to 10
[9] = Postemergence (flood test species), Rate 125 g/ha, scale of 0 to 10 where 0 is no effect and 10 is complete control
[10] = Rate 62 g/ha, Postemergence section, flood test species, scale of 0 to 10 where 0 is no effect and 10 is complete control
[11] = Rate 250 g/ha, Postemergence (flood test), scale 0 to 10, 0 is no effect, 10 is complete control

In the case of COc1ccccc1Cn1c(=O)on(C(=O)N(c2ccc(F)cc2)C(C)C)c1=O [Compound 143], the “Morningglory plant response rating” value (morningglory; [1]) is reported as 6, the “Morningglory plant response rating” value (morningglory; [2]) is reported as 0 and the “Morningglory plant response rating (0 to 10 scale)” value (morningglory; [3]) is reported as 0. For the same compound, the “Morningglory plant response rating” value (morningglory; [4]) was 0, the “Morningglory plant response rating” value (morningglory; [5]) was 0 and the “Morningglory plant response rating” value (morningglory; [6]) was 3. The “Plant response rating, Morningglory” value (morningglory; [7]) was 8, the “Morningglory plant response rating” value (morningglory; [8]) was 8 and the “Wheat plant response rating” value (wheat; [1]) was 0. For the same compound, the “Wheat plant response rating” value (wheat; [2]) was 0, the “Wheat plant response rating (0 to 10 scale)” value (wheat; [3]) was 0 and the “Wheat plant response rating” value (wheat; [4]) was 0. The “Wheat plant response rating” value (wheat; [5]) was 0, the “Wheat plant response rating” value (wheat; [6]) was 0 and the “Plant response rating, Wheat” value (wheat; [7]) was 0. The “Wheat plant response rating” value (wheat; [8]) was 0, the “Rice plant response rating” value (rice; [9]) was 0 and the “Rice plant response rating” value (rice; [10]) was 0. For the same compound, the “Plant response rating, Rice” value (rice; [11]) was 2, the “Rice plant response rating” value (rice; Rate 500 g/ha, listed under Postemergence (flood test species), scale 0 to 10) was 4 and the “Sugarbeets plant response rating” value (sugar beet; [1]) was 6. The “Sugarbeets plant response rating” value (sugar beet; [2]) was 0, the “Sugarbeets plant response rating (0 to 10 scale)” value (sugar beet; [3]) was 1 and the “Sugarbeets plant response rating” value (sugar beet; [4]) was 3. For the same compound, the “Sugarbeets plant response rating” value (sugar beet; [5]) was 9, the “Sugarbeets plant response rating” value (sugar beet; [6]) was 1 and the “Plant response rating, Sugarbeets” value (sugar beet; [7]) was 6. For the same compound, the “Sugarbeets plant response rating” value (sugar beet; [8]) was 6, the “Cocklebur plant response rating” value (cocklebur; [1]) was 3 and the “Cocklebur plant response rating” value (cocklebur; [2]) was 0. The “Cocklebur plant response rating (0 to 10 scale)” value (cocklebur; [3]) was 0, the “Cocklebur plant response rating” value (cocklebur; [5]) was 0 and the “Cocklebur plant response rating” value (cocklebur; [6]) was 1. For the same compound, the “Plant response rating, Cocklebur” value (cocklebur; [7]) was 3, the “Cocklebur plant response rating” value (cocklebur; [8]) was 4 and the “Crabgrass plant response rating” value (crabgrass; [1]) was 8. The “Crabgrass plant response rating” value (crabgrass; [2]) was 3, the “Crabgrass plant response rating (0 to 10 scale)” value (crabgrass; [3]) was 7 and the “Crabgrass plant response rating” value (crabgrass; [4]) was 8. The “Crabgrass plant response rating” value (crabgrass; [5]) was 10, the “Crabgrass plant response rating” value (crabgrass; [6]) was 1 and the “Plant response rating, Crabgrass” value (crabgrass; [7]) was 8. For the same compound, the “Crabgrass plant response rating” value (crabgrass; [8]) was 9, the “Redroot pigweed plant response rating” value (pigweed; [1]) was 5 and the “Redroot pigweed plant response rating (0 to 10 scale)” value (pigweed; [3]) was 0. The “Redroot pigweed plant response rating” value (pigweed; [4]) was 4, the “Redroot pigweed plant response rating” value (pigweed; [5]) was 10 and the “Redroot pigweed plant response rating” value (pigweed; [6]) was 3. For the same compound, the “Plant response rating, Redroot pigweed” value (pigweed; [7]) was 5, the “Redroot pigweed plant response rating” value (pigweed; [8]) was 6 and the “B. signalgrass plant response rating” value (surinam grass; [1]) was 0. For the same compound, the “B. signalgrass plant response rating” value (surinam grass; [2]) was 0, the “B. signalgrass plant response rating (0 to 10 scale)” value (surinam grass; [3]) was 0 and the “B. signalgrass plant response rating” value (surinam grass; [4]) was 2. For the same compound, the “B. signalgrass plant response rating” value (surinam grass; [5]) was 5, the “B. signalgrass plant response rating” value (surinam grass; [6]) was 0 and the “Plant response rating, B. signalgrass” value (surinam grass; [7]) was 0. The “B. signalgrass plant response rating” value (surinam grass; Rate 500 g/ha, Postemergence, scale of 0 to 10 where 0 is no effect and 10 is complete control) was 5, the “Wild oats plant response rating” value (wild oat; [1]) was 0 and the “Wild oats plant response rating” value (wild oat; [2]) was 0. For the same compound, the “Wild oats plant response rating (0 to 10 scale)” value (wild oat; [3]) was 5, the “Wild oats plant response rating” value (wild oat; [4]) was 5 and the “Wild oats plant response rating” value (wild oat; [5]) was 5. The “Wild oats plant response rating” value (wild oat; [6]) was 0, the “Plant response rating, Wild oats” value (wild oat; [7]) was 0 and the “Wild oats plant response rating” value (wild oat; [8]) was 0. For the same compound, the “Corn plant response rating” value (corn; [1]) was 0, the “Corn plant response rating” value (corn; [2]) was 0 and the “Corn plant response rating (0 to 10 scale)” value (corn; [3]) was 0. For the same compound, the “Corn plant response rating” value (corn; [4]) was 0, the “Corn plant response rating” value (corn; [5]) was 0 and the “Corn plant response rating” value (corn; [6]) was 0. The “Plant response rating, Corn” value (corn; [7]) was 0, the “Corn plant response rating” value (corn; [8]) was 0 and the “Blackgrass plant response rating” value (blackgrass; [1]) was 3. For the same compound, the “Blackgrass plant response rating” value (blackgrass; [2]) was 4, the “Blackgrass plant response rating (0 to 10 scale)” value (blackgrass; [3]) was 5 and the “Blackgrass plant response rating” value (blackgrass; [4]) was 5. For the same compound, the “Blackgrass plant response rating” value (blackgrass; [5]) was 6, the “Blackgrass plant response rating” value (blackgrass; [6]) was 3 and the “Plant response rating, Blackgrass” value (blackgrass; [7]) was 5. For the same compound, the “Blackgrass plant response rating” value (blackgrass; [8]) was 8, the “Bedstraw plant response rating” value (bedstraw; [1]) was 6 and the “Bedstraw plant response rating” value (bedstraw; [2]) was 0. The “Bedstraw plant response rating (0 to 10 scale)” value (bedstraw; [3]) was 0, the “Bedstraw plant response rating” value (bedstraw; [4]) was 0 and the “Bedstraw plant response rating” value (bedstraw; [5]) was 0. The “Bedstraw plant response rating” value (bedstraw; [6]) was 5, the “Plant response rating, Bedstraw” value (bedstraw; [7]) was 6 and the “Bedstraw plant response rating” value (bedstraw; Rate 500 g/ha, Postemergence, scale 0 to 10, 0 no effect, 10 complete control) was 8. The “Barnyardgrass plant response rating” value (bamyardgrass; [9]) was 8, the “Barnyardgrass plant response rating” value (bamyardgrass; [10]) was 0 and the “Plant response rating, Barnyardgrass” value (bamyardgrass; [11]) was 8. The “Barnyardgrass plant response rating” value (bamyardgrass; Rate 500 g/ha, listed under Postemergence (flood test species), scale 0 to 10, 0 no effect, 10 complete control) was 10, the “Rape plant response rating” value (rape; [1]) was 0 and the “Rape plant response rating” value (rape; [2]) was 0. The “Rape plant response rating (0 to 10 scale)” value (rape; [3]) was 3, the “Rape plant response rating” value (rape; [4]) was 4 and the “Rape plant response rating” value (rape; [5]) was 6. The “Rape plant response rating” value (rape; [6]) was 0, the “Plant response rating, Rape” value (rape; [7]) was 0 and the “Rape plant response rating” value (rape; [8]) was 3. The “Nutsedge plant response rating” value (purple nutsedge; [1]) was 0, the “Nutsedge plant response rating” value (purple nutsedge; [2]) was 0 and the “Nutsedge plant response rating (0 to 10 scale)” value (purple nutsedge; [3]) was 0. For the same compound, the “Nutsedge plant response rating” value (purple nutsedge; [4]) was 0, the “Nutsedge plant response rating” value (purple nutsedge; [5]) was 0 and the “Nutsedge plant response rating” value (purple nutsedge; [6]) was 0. For the same compound, the “Plant response rating, Nutsedge” value (purple nutsedge; [7]) was 0, the “Nutsedge plant response rating” value (purple nutsedge; [8]) was 0 and the “Giant foxtail plant response rating” value (giant foxtail; [1]) was 2. The “Giant foxtail plant response rating” value (giant foxtail; [2]) was 3, the “Giant foxtail plant response rating (0 to 10 scale)” value (giant foxtail; [3]) was 9 and the “Giant foxtail plant response rating” value (giant foxtail; [4]) was 9. The “Giant foxtail plant response rating” value (giant foxtail; [5]) was 10, the “Giant foxtail plant response rating” value (giant foxtail; [6]) was 0 and the “Plant response rating, Giant foxtail” value (giant foxtail; [7]) was 5. For the same compound, the “Giant foxtail plant response rating” value (giant foxtail; [8]) was 7.
